Results taken from US20260109731A1, “NE[…] USE THEREOF” (HUNAN MINGRUI PHARMACEUTICAL CO., LTD., priority 2023, published 2026).
Like-named read-outs stand apart in the source and are kept apart here.

Columns and labels:
[1] = Pharmacokinetic analysis of oral administration to male rats; type: in vivo; conditions: oral gavage 12 mg/kg; for Blood drug concentration: individual rats 1-7; for concentration at 0.5 h / concentration at 1 h / concentration at 2 h / concentration at 3 h / concentration at 4 h / concentration at 5 h / concentration at 6 h / concentration at 8 h / concentration at 10 h / concentration at 12 h / concentration at 18 h / concentration at 24 h: male, SD, rat, plasma, po, 12 mg/kg
Excerpt: Male SD rats (body weight: 230 g to 250 g) were purchased from BEIJING HFK BIOSCIENCE CO., LTD.

[2] = Pharmacokinetic analysis of tail vein administration in female rats; conditions: 3 mg/kg
Experimental: (§1) • Female SD rats (body weight: 200 g to 220 g) were purchased from BEIJING HFK BIOSCIENCE CO., LTD.
60 female SD rats were divided into two groups (Aintravenous and Bintravenous), with 30 rats per group (5 rats per blood collection time point). The drugs Aintravenous and Bintravenous were administered via tail vein injection at 3 mg/kg each (about 1.2 mL of drug solution). Blood was collected from the orbital venous plexus at time points (5 min, 30 min, 1 h, 2 h, 4 h, and 8 h) after administration, respectively, anticoagulated with heparin, and centrifuged, and then the plasma was separated and stored at −80° C. for later testing. At 8 h after blood collection, the animals were sacrificed, and the brain and liver tissues were taken and stored at −80° C. for later testing.
(§2) 100 μL of plasma sample, 10 μL of internal standard solution (100 ng/mL testosterone D-3 solution), and 310 μL of acetonitrile were accurately measured, uniformly mixed by vortexing, and centrifuged (14000 rpm, 4° C.), and a resulting supernatant was taken and detected using UPLC-MS/MS (the analysis method was the same as that in pharmacokinetic analysis in mice).
(§3) About 100 mg of brain or liver tissue sample was taken, and accurately weighed. 100 μL of water and 400 μL acetonitrile were accurately added thereto, and a resulting mixture was subjected to homogenization. 100 μL of brain or liver tissue homogenate, 10 μL of internal standard solution (100 ng/mL testosterone D-3 solution), and 310 μL of acetonitrile were accurately measured, uniformly mixed by vortexing, and centrifuged (14000 rpm, 4° C.), and a resulting supernatant was taken and detected using UPLC-MS/MS (the analysis method was the same as that in pharmacokinetic analysis in mice).

[3] = Pharmacokinetic analysis of oral gavage administration in female rats; conditions: 12 mg/kg
Experimental: as §1
60 female SD rats were divided into two groups (Aoral and Boral), with 30 rats per group (5 rats per blood collection time point). The drugs Aoral and Boral were administered via oral gavage administration at 12 mg/kg each (about 1.6 mL of drug solution). Blood was collected from the orbital venous plexus at each time point (5 min, 30 min, 1 h, 2 h, 4 h, and 8 h) after administration, respectively, anticoagulated with heparin, and centrifuged, and then the plasma was separated and stored at −80° C. for later testing. At 8 h after blood collection, the animals were sacrificed, and the brain and Liver tissues were taken and stored at −80° C. for later testing.
as §2, §3

[4] = In vitro phase I metabolic stability in male SD rat hepatic microsomes; type: in vitro ADME; conditions: male SD rat hepatic microsomes
Experimental: Phase I metabolic stability kit (purchased from HUIZHI HEYUAN BIOTECHNOLOGY (BEIJING) CO., LTD), with the following components of the product:
Positive substrate testosterone solution (10 mM): diluted with acetonitrile to prepare a 200 μM solution for later use; stop solution & internal standard (testosterone-D3): dissolved with acetonitrile to prepare a 5 ng/mL solution for later use.
• 1) all components of the kit were thawed in an ice bath and placed on ice for later use; • 2) an incubation system (taking 200 μL system as an example) was prepared:
• 3) 160 μL of pre-incubation solution B was added into the centrifuge tube containing 40 μL of pre-incubation solution A, uniform mixing was performed by pipetting three times, and the resulting mixture was immediately placed in a water bath at 37° C. for incubation and timing was started; • 4) at predetermined incubation time points (0, 5, 10, 15, 30, 45, 60 minutes), the incubation solution was quantitatively taken out, and 200 μL of stop solution (5 ng/mL testosterone-D3 in acetonitrile, pre-chilled at 4° C.) was added to terminate the reaction (stop solution volume: incubation system volume=1:1). Experimental samples were prepared in triplicate at each time point.
To verify the validity of the experiment, a positive control group was established concurrently in the whole experiment to evaluate whether the incubation system functioned properly, with the preparation method as follows: the compound to be tested was replaced with the positive substrate testosterone (200 μM in acetonitrile) from the phase I metabolic stability kit, and the other components of the incubation system and experimental method were the same as those of the experimental group.
The ratio of the chromatographic peak area of the compound to be tested to the chromatographic peak area of the testosterone-D3 (internal standard) was used as the calculated data. By taking the peak area ratio at time zero of the test compound as 100%, the remaining percentages were calculated by comparing the peak area ratio at each time point with the peak area ratio at time zero, and the natural logarithms of the remaining percentages of the substrate at each time point are then subjected to linear regression against the incubation times to obtain the slope k. Therefore, the in vitro metabolic half-life (T1/2) and intrinsic clearance (CLint) were calculated using the following formulas: […]

[5] = female SD rats, tail vein, 8 h after administration

CC(=O)[C@H]1CC[C@H]2[C@@H]3CC[C@H]4C[C@H](O)CC[C@]4(C)[C@H]3CC[C@]12C [Allopregnanolone, 5α-pregnan-3α-ol-20-one, reference compound]
Blood drug concentration ([1]; male SD rats, 0.5 h): 0 ng/mL
level in the plasma at all time points ([1]; male SD rats, 30 min to 24 h): undetectable
Blood drug concentration ([1]; male SD rats, 1 h): 0 ng/mL
Blood drug concentration ([1]; male SD rats, 2 h): 0 ng/mL
Blood drug concentration ([1]; male SD rats, 3 h): 0 ng/mL
Blood drug concentration ([1]; male SD rats, 4 h): 0 ng/mL
Blood drug concentration ([1]; male SD rats, 5 h): 0 ng/mL
Blood drug concentration ([1]; male SD rats, 6 h): 0 ng/mL
Blood drug concentration ([1]; male SD rats, 8 h): 0 ng/mL
Blood drug concentration ([1]; male SD rats, 10 h): 0 ng/mL
Blood drug concentration ([1]; male SD rats, 12 h): 0 ng/mL
Blood drug concentration ([1]; male SD rats, 18 h): 0 ng/mL
Blood drug concentration ([1]; male SD rats, 24 h): 0 ng/mL
concentration at 0.5 h ([1]; 0.5 h, individual rats 1-7, read-out: Blood drug concentration): 0 ng/mL
concentration at 0.5 h ([1]; 0.5 h, mean of 7 rats, read-out: Blood drug concentration, Mean value): 0 ng/mL
concentration at 1 h ([1]; 1 h, individual rats 1-7, read-out: Blood drug concentration): 0 ng/mL
concentration at 1 h ([1]; 1 h, mean of 7 rats, read-out: Blood drug concentration, Mean value): 0 ng/mL
concentration at 2 h ([1]; 2 h, individual rats 1-7, read-out: Blood drug concentration): 0 ng/mL
concentration at 2 h ([1]; 2 h, mean of 7 rats, read-out: Blood drug concentration, Mean value): 0 ng/mL
concentration at 3 h ([1]; 3 h, individual rats 1-7, read-out: Blood drug concentration): 0 ng/mL
concentration at 3 h ([1]; 3 h, mean of 7 rats, read-out: Blood drug concentration, Mean value): 0 ng/mL
concentration at 4 h ([1]; 4 h, individual rats 1-7, read-out: Blood drug concentration): 0 ng/mL
concentration at 4 h ([1]; 4 h, mean of 7 rats, read-out: Blood drug concentration, Mean value): 0 ng/mL
concentration at 5 h ([1]; 5 h, individual rats 1-7, read-out: Blood drug concentration): 0 ng/mL
concentration at 5 h ([1]; 5 h, mean of 7 rats, read-out: Blood drug concentration, Mean value): 0 ng/mL
concentration at 6 h ([1]; 6 h, individual rats 1-7, read-out: Blood drug concentration): 0 ng/mL
concentration at 6 h ([1]; 6 h, mean of 7 rats, read-out: Blood drug concentration, Mean value): 0 ng/mL
concentration at 8 h ([1]; 8 h, individual rats 1-7, read-out: Blood drug concentration): 0 ng/mL
concentration at 8 h ([1]; 8 h, mean of 7 rats, read-out: Blood drug concentration, Mean value): 0 ng/mL
concentration at 10 h ([1]; 10 h, individual rats 1-7, read-out: Blood drug concentration): 0 ng/mL
concentration at 10 h ([1]; 10 h, mean of 7 rats, read-out: Blood drug concentration, Mean value): 0 ng/mL
concentration at 12 h ([1]; 12 h, individual rats 1-7, read-out: Blood drug concentration): 0 ng/mL
concentration at 12 h ([1]; 12 h, mean of 7 rats, read-out: Blood drug concentration, Mean value): 0 ng/mL
concentration at 18 h ([1]; 18 h, individual rats 1-7, read-out: Blood drug concentration): 0 ng/mL
concentration at 18 h ([1]; 18 h, mean of 7 rats, read-out: Blood drug concentration, Mean value): 0 ng/mL
concentration at 24 h ([1]; 24 h, individual rats 1-7, read-out: Blood drug concentration): 0 ng/mL
concentration at 24 h ([1]; 24 h, mean of 7 rats, read-out: Blood drug concentration, Mean value): 0 ng/mL
level of the administered compound in the liver ([2]; female SD rats, intravenous (tail vein), 8 h after administration): undetectable
concentration in brain tissue [2, 5]: undetectable
concentration in plasma [2, 5]: undetectable
clearance ([2]; female, SD, rat, plasma, iv): 109 mL/min/kg
half-life ([2]; female, SD, rat, plasma, iv): 52.2 min
level of the administered compound in the liver tissue (for compound 1 the sentence prints: in the plasma) ([3]; female SD rats, oral administration, 8 h after administration): undetectable
level in plasma and brain tissue at all time points ([3]; female SD rats, oral gavage): undetectable
bioavailability ([3]; female, SD, rat, plasma, oral): 0%
half-life ([4]; liver microsomes, NADPH system, 37° C., read-out: T1/2 (in vitro metabolic half-life)): 2.17 min
microsomal CLint ([4]; liver microsomes, read-out: intrinsic clearance): 639 µL/min/mg
In vitro CLint ([4]; 37° C.): 639.28 μL/min/mg protein
k (slope of ln remaining percentage against incubation time) ([4]; 37° C.): −0.3196
